From patent US20240374655A1, “INTESTINAL MICROBIOTA AND GVHD” (Memorial Sloan-Kettering Cancer Center, priority 2014, published 2024)
Entries after “also recorded” stand apart in the source; their conditions may differ.

Columns and labels:
[1] = system: Lactobacillus johnsonii of C57BL/6 origin; assay: Sugar fermentation by bacterial isolate (pH and optical density in media lacking glucose); format: cell-based
Protocol: (§1) Utilizing Blautia isolate of C57BL/6 origin, as well as a Lactobacillus johnsonii of C57BL/6 origin, the ability of these bacteria to ferment a variety of sugars was evaluated using pH and optical density to evaluate bacterial growth in media lacking glucose. Lactobacillus johnsonii was evaluated because this bacteria expands in the setting of calorie restriction at the expense of Clostridia, and is thus presumably a direct competitor for nutrients in the murine intestine.

[2] = system: Blautia isolate of C57BL/6 origin; assay: as above; format: cell-based
Protocol: as §1

[3] = Sugars in drinking water to augment Blautia and mitigate experimental GVHD; format: in vivo, C57BL/6 mice; details: for GVHD severity / survival of mice with GVHD: 10 g/L in drinking water beginning one week before BMT
Protocol: Left: Intestinal abundance of Blautia was evaluated on day 14 after BMT, results of a single experiment. Right: Mice were followed for development of clinical GVHD (combined results of 2 experiments).
Mice were followed for development of clinical GVHD (combined results of 3 experiments).
C57BL/6 mice were inoculated orally with a murine Blautia isolate known to ferment xylose. Some mice were then administered xylose in the drinking water (10 g/L) beginning 7 days prior to BMT with B10.BR BM and T cells.

[4] = system: murine Blautia; assay: In vitro suppression of Blautia by L. johnsonii / Lacto-conditioned media and rescue by reducing agents; format: cell-based; details: reducing agent added in the presence of Lacto-conditioned media
Protocol: A) Murine Blautia was grown in peptone yeast glucose broth either alone, or with murine L. johnsonii in conditions of limited media or ample media, and viable colonies were quantified. B) L. johnsonii was allowed to grow in media to plateau phase, then sterile filtered to generate Lacto-conditioned media. Effects of Lacto-conditioned media on the viability of L. johnsonii and murine Blautia were evaluated when mixed with fresh media in a 1:1 ratio. Effects of the addition of 3 reducing agents indicated was also evaluated.
From studying the effects of calorie restriction on intestinal microbiota composition it was observed that obligate anaerobes (Clostridia, Bacteroidetes) are reduced in abundance while facultative anaerobes (Lactobacillos, Proteobacteria) expand. Production of free radicals by E. coli in the setting of starvation has been described previously (Saby S, et al. Appl Environ Microbiol. 1999; 5600-5603). Experiments were designed to examine in vitro if Lactobacillus johnsonii could suppress the growth of our murine Blautia isolate under starvation conditions, and to further investigate if production of free radicals could be a contributing factor. […] The effects of media that had supported the growth of L. johnsonii to plateau phase were further investigated following sterile filtration. […] It was then examined if reducing agents could rescue Blautia from Lacto-conditioned-media-mediated suppression.

[5] = system: 17 strains from a clostridial mix; assay: Growth of strains from a clostridial mix in BHI media without glucose with added sugars; format: cell-based, Clostridia; details: BHI media without glucose plus sugar
From the text: Glucose gave the best results and was able to support the growth of 10 of the total 17 strains. Glucose, however would have limited benefit since it likely doesn't give a selective advantage to the beneficial bacteria. Raffinose was able to support 5 strains, while cellobiose appeared to support 4 strains not supported by raffinose. In one embodiment, therefore, a mixture of raffinose and cellobiose can be administered to a subject to provide support for at least a portion of the beneficial bacteria.

[6] = system: intestinal microbiota (Clostridiales, Enterococcus); assay: Flora composition (16S rRNA sequencing of stool) after antibiotic treatment of healthy mice; format: in vivo, C57BL/6 mice; details: 100 mg/kg SC twice a day for two days
Protocol: (§2) FIGS. 16A-16J Imipenem treatment, compared to aztreonam treatment, suppresses anaerobic commensals and elevates GVHD severity in mice. (A) Flora composition analysis using 16S rRNA sequencing prior to and after treatment with the indicated antibiotics in healthy C57BL/6 mice. Mice were treated with subcutaneous (SC) injections of each antibiotic twice a day for two days (500 mg/kg for pip/tazo and 100 mg/kg for others) and stool samples were collected the following day. Values represent mean±SEM (n=3-4). *, P<0.05; **, P<0.01; ****, P<0.0001. Data are representative of two independent experiments. (B to J) Lethally irradiated 129S1 recipients were transplanted with MHC matched C57BL/6 T-cell depleted bone marrow (TCD-BM) cells and 1×10^6 C57BL/6 T cells. Control mice received TCD-BM only. Recipients were treated with imipenem or aztreonam (100 mg/kg, SC, 3 times a week from day 10 to day 24 following allo-HSCT). (B) Comparison of overall survival, with combined data from three independent experiments (n=15-43). ****, P<0.0001. (C) Mice with GVHD treated with antibiotics were sacrificed on day 21 and GVHD histology scores in target organs were quantified by a blinded pathologist. Data are combined from three independent experiments (n=5-20). *, P<0.05. (D) Stool samples obtained from mice treated with imipenem or aztreonam similarly to those in B were collected on day 21 and analyzed by 16S rRNA gene sequencing, followed by principal coordinate analysis of weighted and normalized UniFrac distances. (E and F) Differential taxonomic abundance between aztreonam treated and imipenem treated recipients was analyzed by (E) linear discriminate analysis coupled with effect size measurements (LEfSe) and (F) by LEfSe projected as a cladogram. Data are representative from more than five independent experiments in D to F. (G and H) Comparisons of bacterial abundance at the phylogenetic levels of (G) order, and (H) genus are shown. Data are combined from 6 independent experiments (n=32-36). ***, P<0.001. (I) Stool samples collected from mice with GVHD treated with antibiotics were collected on day 21, and evaluated by metagenomic shotgun sequence analysis, comparison of bacterial species abundance determined by taxonomy. Numbers 1 through 6 along the x-axis represent the individual subjects. (J) Principal component analysis of quantification of sequence reads from KEGG gene orthologs comparing samples from mice treated with aztreonam and imipenem.
To further explore causality and mechanisms of the effects of antibiotics with anaerobic activity on GVHD, we turned to experiments in mice. […] Mice were treated by subcutaneous (SC) injections of each antibiotic twice a day for two days (500 mg/kg for pip/tazo and 100 mg/kg for others) and stool samples were collected, followed by 16S rRNA gene amplification and sequence analysis.

[7] = system: Clostridiales; assay: Change in Clostridiales abundance in paired stool samples of allo-HSCT patients before and after starting antibiotics; format: in vivo, human; details: before vs after starting the antibiotic; compared to aztreonam
From the text: (A) A retrospective cohort was identified of 283 adult patients who received non-T cell depleted allo-HSCT at our center from 1994 to 2013 and received antibiotics for neutropenic fever. Patients were stratified by exposure to antibiotics with significant activity against anaerobes. Outcomes indicated were depicted by Kaplan-Meier plots and curves compared by the logrank test. (B to G) Six representative clinical cases with time courses depicted of fecal microbiota composition and administration of antibiotic treatments during the course of allo-HSCT. […] (H) Change in abundance of Clostridiales in paired fecal samples from patients undergoing allo-HSCT collected prior to and following treatment with the indicated antibiotics.
For each stool specimen, DNA was purified using a phenol-chloroform extraction technique with mechanical disruption (bead-beating) based on a previously described protocol (60). Samples were analyzed using the 454 GS FLX Titanium platform to sequence the V1-V3 region of the bacterial 16S rRNA gene or were alternatively analyzed using the Illumina MiSeq platform to sequence the V4-V5 region of the 16S rRNA gene. Sequence data were compiled and processed using mothur version 1.34 (61), screened and filtered for quality (62). Operational taxonomic units (OTUs) were classified to the species level (63) using a modified form of the Greengenes reference database (64). Principal component analysis was performed upon a weighted and normalized Unifrac (65) distance matrix of OTU abundance in R software. Data from this study has been stored in the NCBI Sequence Read Archive (see url: www.ncbi.nlm.nih.gov/sra).
HSCT patients were on intestinal bacterial composition. In 2009, our center began to prospectively collect weekly stool samples from patients undergoing allo-HSCT. From this specimen bank, we identified paired stool samples collected from patients prior to as well as following initiation of specific antibiotics during the course of allo-HSCT. […]

[8] = Antibiotic treatment in MHC-matched minor antigen-mismatched allo-HSCT GVHD model (C57BL/6 into 129S1); format: in vivo; details: mouse, in vivo
Protocol: as §2, with “Data are representative from more than five independent experiments in D to F. (G and H) Comparisons of bacterial abundance at the phylogenetic levels of (G) order, and (H) genus are shown. Data are combined from 6 independent experiments (n=32-36). ***, P<0.001.” left out, “Numbers 1 through 6 along the x-axis represent the individual subjects.” left out
(A to G) Lethally irradiated 129S1 recipients were transplanted with C57BL/6 TCD-BM cells with 1×10^6 C57BL/6 T cells. […] (A) Colonic lamina propria-infiltrating leukocytes from recipients were analyzed on day 21 by flow cytometry. […] (C) Lamina propria-infiltrating leukocytes from the colon on day 21 were enriched for CD11b and CD11e simultaneously using a mixture of magnetic beads and IL-23 transcripts were quantified by real time PCR. […] (D) Immunofluorescent staining was used to quantify pSTAT3, CD3, and DAPI positive cells in colonic tissue collected on day 21. […]

In the case of `O=C[C@H](O)[C@@H](O)[C@H](O)CO` [xylose], the “Fermentation of sugar by Lactobacillus” value [1] is reported as “not by Lactobacillus”, the “Fermentation of sugar by Blautia” value [2] is reported as “fermented by Blautia” and the “GVHD severity / survival of mice with GVHD” value [3] is reported as “improved survival; also recorded: reduced GVHD severity”. For the same compound, the “Intestinal abundance of Blautia” value ([3]; 10 g/L in drinking water from 7 days before BMT, day 14 after BMT, 16S deep sequencing) was “expansion of Blautia; also recorded: increased abundance”.

For `N[C@@H](CS)C(=O)O` [L-cysteine], the “Rescue of Blautia growth from Lacto-conditioned-media-mediated suppression” value (shortened to “Rescue of Blautia growth”) [4] was “able to support Blautia growth”.

With `O=C[C@H](O)[C@@H](O)[C@H](O[C@@H]1O[C@H](CO)[C@@H](O)[C@H](O)[C@H]1O)[C@H](O)CO` [cellobiose] the “Number of strains supported that are not supported by raffinose” value [5] was 4 strains.

In the case of `C[C@H]1[C@H](NC(=O)/C(=N\OC(C)(C)C(=O)O)c2csc(N)n2)C(=O)N1S(=O)(=O)O` [aztreonam], the “Abundance of Clostridiales in stool” value [6] is reported as “spared Clostridiales”, the “Change in Clostridiales abundance in stool of patients” value [7] is reported as “relative preservation of Clostridiales abundances” and the “Bacteria past the colonic epithelial barrier” value [8] is reported as “not seen”.

In the case of `CO/N=C(\C(=O)N[C@@H]1C(=O)N2C(C(=O)[O-])=C(C[N+]3(C)CCCC3)CS[C@H]12)c1csc(N)n1` [cefepime], the “Abundance of Clostridiales in stool” value [6] is reported as “spared Clostridiales”.

For `O=C1O[C@H]([C@@H](O)CO)C(O)=C1O` [ascorbic acid], the “Rescue of Blautia growth” value [4] was “able to support Blautia growth”.

For `C[C@H](O)[C@H](O)[C@@H](O)[C@@H](O)C=O` [rhamnose], the “Fermentation of sugar by Lactobacillus” value [1] was “not by Lactobacillus” and the “Fermentation of sugar by Blautia” value [2] was “fermented by Blautia”.

With `OC[C@H]1O[C@H](OC[C@H]2O[C@H](O[C@]3(CO)O[C@H](CO)[C@@H](O)[C@@H]3O)[C@H](O)[C@@H](O)[C@@H]2O)[C@H](O)[C@@H](O)[C@H]1O` [raffinose] the “Number of strains whose growth is supported” value ([5]; of the total 17 strains) was 5 strains and the “GVHD severity / survival of mice with GVHD” value [3] was “reduces GVHD severity”.

For `O=C([O-])CS.[Na+]` [sodium thioglycolate], the “Rescue of Blautia growth” value [4] was “able to support Blautia growth”.
